Assay results reported in publication PMC2674291 (The Open Biochemistry Journal, 2009).

Tests used:
[1] = tested on: Phenoloxidase of the susceptible strain (POs); test: absorbance at […] nm, initial rate, microtiter plate; format: biochemical, Plutella xylostella; conditions: 20 mM PBS pH 6.5; room temperature; partially purified enzyme
[2] = tested on: Phenoloxidase of the resistant strain (POr); conditions: 20 mM PBS pH 6.5; room temperature; partially purified enzyme

## N[C@@H](Cc1ccc(O)c(O)c1)C(=O)O [L-DOPA]
[1]
  Km: 1110 µM
[2]
  Km: 1110 µM
